Test results: patent US5032595A, “Method of stimulating steroidogenesis with alpidem” (FIDIA-Georgetown Institute for the Neurosciences, priority 1989, dated 1991)

Key:
[1] = biological target: T1, peripheral-type benzodiazepine receptor (PBR) in Y-1 cells (Mus musculus, UniProt P50637); assay: [3H]PK 11195 binding in Y-1 adrenocortical cells; settings: 37° C., FIG. 2a
T1 construct: Y-1 cell cultures were scraped from the flasks; host or cells: Y-1 mouse adrenal tumor cells
Procedure: (§1) Cells--The Y-1 adrenal mouse tumor cell line used in these studies was obtained from the American Type Culture Collection (ATCC #CCL 79). Stock cultures were grown in modified Waymouth's MB752/l medium containing 20 mM HEPES, 1.2 g/l NaHCO3, 15% horse serum and 2.5% fetal calf serum, pH 7.4. Before use the cells were washed three times at 30 min intervals, with serum-free media in order to eliminate serum components that may interfere with the assays and were incubated for the indicated time periods in the presence of the drugs under investigation. Bovine fasciculata-reticularis and adrenocortical cells from adult (300 g) Sprague-Dawley rats were prepared as previously described by Yanagibashi et al, (1989) Endocrinology 124; 2838-2391.
Radioligand binding assays--Y-1 cell cultures were scraped from the flasks ([…]) in 5 ml of Kreb's buffer, dispersed by repetitive pipetting, and centrifuged at 1,200 × g for 5 min. The cell pellets were resuspended in Kreb's buffer and larger cellular aggregates were allowed to settle for 5 min. The finely dispersed cell suspensions were taken for further experimentation.
Binding assays were performed in a total volume of 250-400 ul of Kreb's buffer containing [^3 H]PK 11195 (0.07-20 nM) with 5 ug of cellular protein. Incubations were conducted at 37° C. for 30 min and bound radioligand was measured by filtration through Whatman GF/C filters followed by four rapid 5 ml washes with 25 mM Tris-HCl (pH 7.4) containing 1 uM PK 11195. Filters were subjected to liquid scintillation counting. Nonspecific binding was measured in the presence (of 10 uM nonradioactive PK 11195.

rat adrenocortical cells = assay: Corticosterone secretion in dissociated rat adrenocortical cells; assay type: cell-based; settings: rat adrenocortical cell suspensions, FIG. 5a
Procedure: as §1
Measurement of steroid production--These experiments were performed with the Y-1 cells plated in 12--22 mm wells and incubated for the times shown at a final volume of 1 ml of serum-free media at 37° C. […] Steroid production was determined by measuring 20-γ-hydroxyprogesterone, the main steroid product of these cells, using a radioimmunoassay with an antibody donated by Dr. G. Nieswender (Univ. of Colorado, Fort Collins), under the process described in Kowal J. (1970), Recent Progress in Hormone Research 26, 623-687 and Schimmer B.P. (1981) in Functionally Differentiated Cell Lines, ed. […]

[2] = tested on: purified rat Leydig cells; assay: Testosterone production by purified rat Leydig cells, basal and hCG stimulated

T1 sequence (P50637 whole entry): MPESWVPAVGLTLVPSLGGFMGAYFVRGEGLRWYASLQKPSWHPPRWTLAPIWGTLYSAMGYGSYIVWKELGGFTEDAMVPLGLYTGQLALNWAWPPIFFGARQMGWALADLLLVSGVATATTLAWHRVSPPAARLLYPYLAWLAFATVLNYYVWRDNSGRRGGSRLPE

## CN1C(=O)CN=C(c2ccc(Cl)cc2)c2cc(Cl)ccc21 [Ro5-4864, 4'-chlorodiazepam]
[1]
  rank order of compound displacement potency against [3H]PK 11195 binding: alpidem>PK 11195>PK 14067>4'-chlorodiazepam>zolpidem>PK 14608, diazepam>flunitrazepam>clonazepam>flumazenil
Rat adrenocortical cells
  stimulation of steroid production (corticosterone), in words: much more potent at stimulating steroidogenesis in rat adrenocortical cells when compared with bovine preparations
[2]; compound 10^-5 M, basal, 4 hours at 32° C., mean ± S.D. n = 3, control 1.30 ± 0.20
  Testosterone, No Additions: 2.40 ± 0.30 ng/10^5 cel s/4 hours
[2]; compound 10^-5 M, hCG 50 ng/ml, 4 hours at 32° C., mean ± S.D. n = 3, control 15.13 ± 2.05
  Testosterone, hCG (50 ng/ml): 14.10 ± 2.26 ng/10^5 cel s/4 hours
[2]; purified rat Leydig cells, basal, 240 min
  stimulation of testosterone production: about 2 fold
